PMC5797729, “Structure/Function Studies of the α4 Subunit Reveal Evolutionary Loss of a GlyR Subtype Involved in Startle and Escape Responses” (Frontiers in Molecular Neuroscience, 2018)

Experiments:
Human α4^K59E/C204Y + α1 = test system: T1, Human α4^K59E/C204Y + α1; details: agonist; -40 mV; pH 7.4; 22 °C
T1 construct: gene GLRA1
Source text: whole-cell patch clamp, Hill fit on Human α4^K59E/C204Y + α1

Mouse α4 GlyR = biological target: T2, Mouse α4 GlyR (Mus musculus, UniProt Q61603); assay: whole-cell patch clamp, Hill fit; assay type: cell-based
T2 construct: gene Glra4; full-length wild-type cDNA from whole brain in pRK5, homomeric pentamer, HEK293 cells
T2 sequence (Q61603 28-456): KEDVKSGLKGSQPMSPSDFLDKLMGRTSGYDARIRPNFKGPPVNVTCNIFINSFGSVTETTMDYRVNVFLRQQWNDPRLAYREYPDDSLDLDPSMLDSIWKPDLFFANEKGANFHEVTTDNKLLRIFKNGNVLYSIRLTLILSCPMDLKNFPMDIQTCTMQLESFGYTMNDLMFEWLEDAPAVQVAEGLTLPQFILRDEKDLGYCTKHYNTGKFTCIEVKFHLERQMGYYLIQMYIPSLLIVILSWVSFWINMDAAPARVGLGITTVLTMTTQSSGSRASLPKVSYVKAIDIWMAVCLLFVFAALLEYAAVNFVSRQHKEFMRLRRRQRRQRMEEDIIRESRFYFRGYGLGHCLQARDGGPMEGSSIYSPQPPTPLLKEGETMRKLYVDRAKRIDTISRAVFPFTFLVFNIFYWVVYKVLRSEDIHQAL
Source text: whole-cell patch clamp, Hill fit on Mouse α4 GlyR

Gorilla α4 GlyR = biological target: T3, Gorilla α4 GlyR (Gorilla gorilla, UniProt G3RDJ8); assay: whole-cell patch clamp, Hill fit; assay type: cell-based
T3 construct: gene GLRA4; full-length synthetic predicted cDNA in pRK5, homomeric pentamer, HEK293 cells
T3 sequence (G3RDJ8 29-457): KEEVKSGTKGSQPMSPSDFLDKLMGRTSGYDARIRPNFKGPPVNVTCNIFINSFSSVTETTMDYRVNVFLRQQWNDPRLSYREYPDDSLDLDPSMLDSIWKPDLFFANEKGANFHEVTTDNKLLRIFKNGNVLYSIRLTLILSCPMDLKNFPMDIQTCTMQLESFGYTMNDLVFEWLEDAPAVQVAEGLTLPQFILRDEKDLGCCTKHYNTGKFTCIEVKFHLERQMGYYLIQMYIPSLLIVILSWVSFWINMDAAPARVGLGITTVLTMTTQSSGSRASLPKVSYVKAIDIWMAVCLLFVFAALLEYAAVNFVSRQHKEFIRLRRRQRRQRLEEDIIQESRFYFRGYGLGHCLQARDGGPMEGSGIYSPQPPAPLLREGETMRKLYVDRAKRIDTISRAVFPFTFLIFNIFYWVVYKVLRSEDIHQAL
Source text: whole-cell patch clamp, Hill fit on Gorilla α4 GlyR

- EC50 (Human α4^K59E/C204Y + α1): 350 ± 29 µM
- EC50 (Mouse α4 GlyR): 61 ± 10 µM
- EC50 (Gorilla α4 GlyR): 86 ± 16 µM
Structure (SMILES): NCC(=O)O [glycine]
